PMC7366380, “Discovery of a Potent and Selective Covalent Inhibitor and Activity-Based Probe for the Deubiquitylating Enzyme UCHL1, with Antifibrotic Activity” (Journal of the American Chemical Society, 2020)

Experiments:
20 DUBs = assay: Biochemical DUB selectivity profiling (FP and FI assays), whole panel
UCHL1 [1] = target: T1, UCHL1 (Homo sapiens, UniProt P09936); details: HEK293T, 1 h treatment, immunoblot
T1 sequence (P09936 1-223): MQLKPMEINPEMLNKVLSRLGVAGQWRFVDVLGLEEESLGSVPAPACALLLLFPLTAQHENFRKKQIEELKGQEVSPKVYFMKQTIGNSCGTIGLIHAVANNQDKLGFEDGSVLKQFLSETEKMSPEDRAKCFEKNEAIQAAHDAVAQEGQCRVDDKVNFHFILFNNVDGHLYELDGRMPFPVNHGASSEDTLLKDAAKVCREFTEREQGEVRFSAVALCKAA

UCHL1 [2] = target: T1, UCHL1; assay: Competitive ABPP against ABP 2 in HEK293 cells, in-gel fluorescence and pulldown/UCHL1 immunoblot; format: cell-based; set-up: rapidly targets endogenous UCHL1 in cells; endogenous in cells; host or cells: HEK293; details: HEK293, compound 1 h, then 2 (20 nM) 10 min
UCHL1 [3] = target: T1, UCHL1; assay: Reversible inhibition (jump dilution) assay with Ub-AMC; format: biochemical; set-up: rapidly targets endogenous UCHL1 in cells; endogenous in cells; host or cells: HEK293; details: UCHL1 300 nM, compound 400 nM, 30 min, 100x dilution
Protocol: Figure S2. UCHL1 kinetics
(a) Kinetic analysis of UCHL1 (3 nM)-catalyzed cleavage of varied concentrations of Ub-AMC.
(b) Non-linear fit of Michaelis –Menten equation to initial reaction velocities versus Ub-AMC […]
(c) Apparent rate of inhibition (ka) of compound 1 and 2 at varying concentrations. Ub-AMC (130 nM) fluorescence intensity was measured in the presence of UCHL1 (3 nM). The apparent rate constant for inhibition, ka/I was determined by linear regression, giving the absolute value of the rate constant kobs/I values for […]
13000) M-1s-1, respectively. […]
intensity read immediately for 1 h. […]
The excess ligand was removed by washing with buffer D in an Amicon® Ultra MWCO 10 kDa centrifugation spin filter three times. The protein-adducts were desalted using 3× SDB-XC polystyrene-divinylbenzene copolymer extraction disks, following published methods.5 Samples were eluted with 50% (v/v) MeCN 0.5% (v/v) formic acid in LC-MS grade water and analyzed by LC-ESI (ACQUITY UPLC H-Class PLUS instrument (Waters)) using an ACQUITY UPLC BEH C4 column (Waters) coupled with Waters LCT Premier MS detector. […]
(§1) The MS data was analyzed by PEAKS Studio 8.5 (Bioinformatics Solutions Inc.). […]
(§2) Homogeneous time resolved fluorescence (HTRF) assay […]
(§3) BME) and incubated for 30 min at room temperature. […] The plates were sealed and incubated overnight at 4 °C then read using a PHERAstar (BMG), and the Delta F calculated: […]

UCHL1 [4] = target: T1, UCHL1; assay: UCHL1 covalent adduct determination by LC-ESI-MS; format: binding; set-up: (residues 1-223, Uniprot P09936); GST (N, cleaved yes); made in house; host or cells: E. coli Rosetta 2(DE3), pGEX-6P-1; details: UCHL1 5 μM, compound 13 μM, 60 min
Protocol: values were plotted against compound concentration to afford the apparent second order rate constant for inhibition, ka/I. The absolute value of the second order rate constant kobs/I was […]
Reversible inhibition assay: Jump dilution assays were performed by incubating UCHL1 […]
negative controls (iodoacetamide (IAA) 10 mM) for 30 min at room temperature. The reaction […]
intensity read immediately for 1 h.
UCHL1 covalent adduct determination […]
pH 7.5) was incubated with compound 1, 2 (2.5 equiv.) or DMSO for 1 h at room temperature.
The excess ligand was removed by washing with buffer D in an Amicon® Ultra MWCO 10 kDa centrifugation spin filter three times. The protein-adducts were desalted using 3× SDB-XC polystyrene-divinylbenzene copolymer extraction disks, following published methods.5 Samples were eluted with 50% (v/v) MeCN 0.5% (v/v) formic acid in LC-MS grade water and analyzed by LC-ESI (ACQUITY UPLC H-Class PLUS instrument (Waters)) using an ACQUITY UPLC BEH C4 column (Waters) coupled with Waters LCT Premier MS detector.
UCHL1 covalent adduct site identification […]
as §1, §2, §3

N#CN1CCC[C@H]1C(=O)N1CCc2c(-c3c[nH]c4ncccc34)cccc21 [Compound 1]
activity/selectivity in cross-screening against 20 DUBs (20 DUBs): exquisite selectivity | in-cell competition for HA-Ub-VME labeling of UCHL1 (UCHL1 [1]): concentration-dependent competition | competition for UCHL1 labeling by ABP 2 (immunoblot) (UCHL1 [2]): dose-dependent UCHL1 labeling reduction | reversibility of inhibition after dilution (UCHL1 [3]): slowly reversible | covalent modification of UCHL1 by LC-ESI-MS (UCHL1 [4]): single modification

C#Cc1cnc2[nH]cc(-c3cccc4c3CCN4C(=O)[C@@H]3CCCN3C#N)c2c1 [Compound 2]
in-cell competition for HA-Ub-VME labeling of UCHL1 (UCHL1 [1]): concentration-dependent competition | reversibility of inhibition after dilution (UCHL1 [3]): slowly reversible | covalent modification of UCHL1 by LC-ESI-MS (UCHL1 [4]): single modification

N#CN1CCC[C@@H]1C(=O)N1CCc2c(-c3c[nH]c4ncccc34)cccc21 [Compound 3]
activity/selectivity in cross-screening against 20 DUBs (20 DUBs): inactive | competition for UCHL1 labeling by ABP 2 (immunoblot) (UCHL1 [2]): no competition
